Measured values as given in patent US12433803B2, “Methods and compositions for studying cell evolution” (THE BROAD INSTITUTE, INC., priority 2017, dated 2025).

System: D458 medulloblastoma cells
Assay: Drug resistance experiment: barcoded D458 cells passaged in JQ1, barcode sequencing and deconvolution
Assay type: cell-based
Details: FIG. 4; barcoded cells passaged with JQ1 (2 uM per method b225); same barcodes recovered in replicate experiments
Description: Drug resistance experiments—D458 and JQ1. Barcoded D458 medulloblastoma cells (fingerprint verified) cells were treated with DMSO or JQ1 (obtained from Drs Bradner and Qi) at a concentration of 2 uM in multiple replicate plates (5×DMSO and 5× each drug concentration). 4 million cells of barcoded D458 cells were plated in each replicate plate in presence of DMSO or JQ1. Barcoded JQ1 cells were also frozen in 10% DMSO/FCS for future retrievable. In addition, cells were also collected for DNA-extraction to determine barcode representation at the early-time point. Cells were retreated with compound every 3-4 days. Cells were counted, passaged or split every 3-4 days, maintaining a minimum representation of 4 million cells. Cells were cultured in DMSO or JQ1 for a total of […] prior to harvesting for DNA extraction for barcode sequencing and deconvolution.
Library deconvolution. Genomic DNA was extracted and prepared for deep sequencing as in (JJ 2017). Libraries were sequenced to a minimum depth of 18 million reads, corresponding to a barcode coverage of >80×.

`Cc1sc2c(c1C)C(c1ccc(Cl)cc1)=N[C@@H](CC(=O)OC(C)(C)C)c1nnc(C)n1-2` [JQ1] was tested, and the “Percentage of barcodes that persist following treatment with JQ1” value was 5%.
